Source: article PMC10281575, “PfCRT mutations conferring piperaquine resistance in falciparum malaria shape the kinetics of quinoline drug binding and transport” (PLOS Pathogens, 2023)
Numbering of substitutions follows the chain as printed. Where “and” joins values, the source holds several entries; their conditions need not be identical. Equal entries are not always repeated.

Key:
PfCRT^Dd2_H97Y_F145I = molecular target: T1, PfCRT^Dd2_H97Y_F145I (Plasmodium falciparum, UniProt Q8IBZ9, A220S/F145I/H97Y/I356T/K76T/M74I/N326S/N75E/Q271E/R371I); experiment: Radiolabeled drug uptake in X. laevis oocytes expressing PfCRT^Dd2_H97Y_F145I; assay type: cell-based; conditions: for PfCRTDd2_H97Y_F145I-mediated PPQ transport / PfCRTDd2_H97Y_F145I-mediated CQ transport: individual replicates (Fig 11); for Hc, Hill coefficient / Vmax, maximal velocity of drug transport / Km: Hill equation fit, 10-500 μM drug, pH 6; for Km: read-out: KM, Michaelis constant
T1 construct: expressed in transfected cells; host or cells: Xenopus laevis oocytes injected with in vitro transcribed RNA
T1 sequence (Q8IBZ9 1-424 M74I/N75E/K76T/H97Y/F145I/A220S/Q271E/N326S/I356T/R371I): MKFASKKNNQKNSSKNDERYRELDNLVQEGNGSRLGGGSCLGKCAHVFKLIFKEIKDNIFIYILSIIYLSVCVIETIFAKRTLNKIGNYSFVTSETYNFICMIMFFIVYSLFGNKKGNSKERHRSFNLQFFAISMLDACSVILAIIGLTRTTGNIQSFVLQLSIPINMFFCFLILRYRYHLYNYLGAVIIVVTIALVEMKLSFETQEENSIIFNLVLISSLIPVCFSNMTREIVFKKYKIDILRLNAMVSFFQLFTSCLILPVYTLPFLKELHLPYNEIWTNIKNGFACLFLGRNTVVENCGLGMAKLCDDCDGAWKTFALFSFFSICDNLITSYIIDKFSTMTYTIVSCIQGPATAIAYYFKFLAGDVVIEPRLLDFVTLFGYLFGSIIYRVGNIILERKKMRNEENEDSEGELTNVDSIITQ
Procedure: (§1) Adult female X. laevis frogs (purchased from NASCO) were anesthetized by submersion in a solution of 0.3% (w/v) 3-amino benzoate methanesulfonate for 15 min. Sections of the ovary were surgically removed and placed in Ca^2+-free ND96 buffer supplemented with 0.1% collagenase D (w/v; Roche), 0.5% BSA (w/v) and 9 mM Na2HPO4 at 18°C for 14–16 h while gently shaking. The oocytes were then washed several times with ND96 buffer (5 mM HEPES, pH 7.5, 96 mM NaCl, 2 mM KCl, 1.8 mM CaCl2, 1 mM MgCl2), supplemented with […] gentamycin. Healthy-looking stage V-VI oocytes were manually selected and randomly grouped for injection. A codon-optimized coding sequence of PfCRT was subcloned into the pSP64T expression vector and subsequently linearized using the restriction endonuclease BamHI or SalI (New England Biolabs GmbH). RNA for injection was transcribed in vitro using the mMESSAGE mMACHINE SP6 Transcription kit (Ambion), diluted with nuclease-free water to a final concentration of 0.6 μg/μL and stored at -80°C. RNA was injected using precision-bore glass capillary tubes (3.5-inch glass capillaries; Drummond Scientific Co.), which were pulled on a vertical puller (P-87 Flaming/Brown micropipette puller, Sutter Instrument Co.) and graduated. The micropipettes were connected to a microinjector (Nanoject II Auto-Nanoliter Injector, Drummond Scientific Co.). Injection was conducted under stereomicroscopic control. 50 nL of nuclease-free water alone (control oocytes) or 50 nL of nuclease-free water containing 30 ng of RNA was injected per oocyte. Injected oocytes were kept for 72 h at 18°C in ND96 buffer with two daily buffer changes before being used for further experiments.
(§2) Drug transport assays were performed as previously described. Briefly, measurements of radiolabeled drug uptake were made over 1 h, unless otherwise specified. […] Where specified, one or more unlabeled drugs were also present at the indicated concentrations. […] The uptake assays were terminated by removing the oocytes from the reaction medium and washing them three times with 2 mL of ice-cold ND96 buffer. Each oocyte was transferred to a separate scintillation vial and lysed by the addition of 200 μL of a 5% SDS solution. The radioactivity in the sample was measured using a liquid scintillation analyser Tri-Carb 4910 TR (PerkinElmer). Water-injected oocytes were analyzed in parallel as a negative control. The buffer from each condition was measured in duplicate in parallel to each experiment to transform counts per minute into pmol of drug. Drug uptake attributable to PfCRT was determined by subtracting the background uptake from water-injected oocytes from that of PfCRT-expressing oocytes. In all cases, at least three independent experiments were performed on oocytes from different frogs, and for each condition in an experiment, measurements were made from 10 oocytes per treatment.

PfCRT^Dd2_G353V = molecular target: T2, PfCRT^Dd2_G353V (Plasmodium falciparum, UniProt Q8IBZ9, A220S/G353V/I356T/K76T/M74I/N326S/N75E/Q271E/R371I); experiment: Radiolabeled drug uptake in X. laevis oocytes expressing PfCRT^Dd2_G353V; assay type: cell-based
T2 construct: expressed in transfected cells; host or cells: Xenopus laevis oocytes injected with in vitro transcribed RNA (pSP64T)
T2 sequence (Q8IBZ9 1-424 M74I/N75E/K76T/A220S/Q271E/N326S/G353V/I356T/R371I): T1 sequence (Q8IBZ9 1-424 M74I/N75E/K76T/H97Y/F145I/A220S/Q271E/N326S/I356T/R371I) with Y97H, I145F, G353V
From the text: A codon-optimized coding sequence of the Dd2 isoform of PfCRT (PfCRT^Dd2) was subcloned into the pSP64T expression vector [21]. To generate the necessary mutations to introduce the amino acid substitutions H97Y, F145I, M343L or G353V into the pfcrt sequence, the overlap extension method was used. A region from the 5’-untranslated Xenopus β-globin sequence to the respective 3’ region, containing the full length pfcrt coding sequence, was amplified using the following primer pairs: for the H97Y mutation, numbers 1/4 and 2/3; for the F145I mutation, numbers 1/6 and 2/5; for the M343L mutation, numbers 1/8 and 2/7; and for the G353V mutation, numbers 1/10 and 2/9 (for primers, see S2 Table). Both PCR products were used as template for amplification of the final product using primers number 1/2. The resulting fragment was cloned into the pSP64T expression vector, and the presence of the desired mutation was confirmed by sequencing.
as §1, §2

SMILES: Clc1ccc2c(N3CCN(CCCN4CCN(c5ccnc6cc(Cl)ccc56)CC4)CC3)ccnc2c1 [PPQ, piperaquine]
- PfCRTDd2_H97Y_F145I-mediated PPQ transport (PfCRT^Dd2_H97Y_F145I; 10 µM PPQ): 4.45 pmol oocyte-1 h-1 and 2.50 pmol oocyte-1 h-1 and 6.51 pmol oocyte-1 h-1
- PfCRTDd2_H97Y_F145I-mediated PPQ transport (PfCRT^Dd2_H97Y_F145I; 50 µM PPQ): 12.64 pmol oocyte-1 h-1 and 8.74 pmol oocyte-1 h-1 and 25.96 pmol oocyte-1 h-1 and 14.99 pmol oocyte-1 h-1 and 20.94 pmol oocyte-1 h-1
- PfCRTDd2_H97Y_F145I-mediated PPQ transport (PfCRT^Dd2_H97Y_F145I; 100 µM PPQ): 28.86 pmol oocyte-1 h-1 and 38.51 pmol oocyte-1 h-1 and 10.62 pmol oocyte-1 h-1 and 34.53 pmol oocyte-1 h-1
- PfCRTDd2_H97Y_F145I-mediated PPQ transport (PfCRT^Dd2_H97Y_F145I; 200 µM PPQ): 112.27 pmol oocyte-1 h-1 and 50.98 pmol oocyte-1 h-1 and 60.86 pmol oocyte-1 h-1 and 71.21 pmol oocyte-1 h-1 and 85.02 pmol oocyte-1 h-1
- PfCRTDd2_H97Y_F145I-mediated PPQ transport (PfCRT^Dd2_H97Y_F145I; 300 µM PPQ): 111.40 pmol oocyte-1 h-1 and 72.67 pmol oocyte-1 h-1 and 112.81 pmol oocyte-1 h-1 and 115.57 pmol oocyte-1 h-1
- PfCRTDd2_H97Y_F145I-mediated PPQ transport (PfCRT^Dd2_H97Y_F145I; 400 µM PPQ): 94.84 pmol oocyte-1 h-1 and 111.83 pmol oocyte-1 h-1 and 131.05 pmol oocyte-1 h-1
- PfCRTDd2_H97Y_F145I-mediated PPQ transport (PfCRT^Dd2_H97Y_F145I; 500 µM PPQ): 81.84 pmol oocyte-1 h-1 and 171.24 pmol oocyte-1 h-1 and 123.65 pmol oocyte-1 h-1 and 87.38 pmol oocyte-1 h-1
- Hc, Hill coefficient (PfCRT^Dd2_H97Y_F145I): 2.0 ± 0.3
- Vmax, maximal velocity of drug transport (PfCRT^Dd2_H97Y_F145I): 131 ± 3 pmol oocyte^-1 h^-1 and 131 ± 10 pmol oocyte^-1 h^-1
- Km (PfCRT^Dd2_H97Y_F145I): 170 ± 20 µM
- PfCRTDd2_G353V-mediated PPQ uptake at 10 µM PPQ (PfCRT^Dd2_G353V; 10 µM PPQ, single replicates): 5.31 pmol oocyte-1 h-1 and 5.17 pmol oocyte-1 h-1 and 3.93 pmol oocyte-1 h-1
- PfCRTDd2_G353V-mediated PPQ uptake at 50 µM PPQ (PfCRT^Dd2_G353V; 50 µM PPQ, single replicates): 29.38 pmol oocyte-1 h-1 and 45.38 pmol oocyte-1 h-1 and 21.36 pmol oocyte-1 h-1 and 40.00 pmol oocyte-1 h-1 and 56.34 pmol oocyte-1 h-1 and 56.46 pmol oocyte-1 h-1 and 95.52 pmol oocyte-1 h-1 and 62.83 pmol oocyte-1 h-1
- PfCRTDd2_G353V-mediated PPQ uptake at 100 µM PPQ (PfCRT^Dd2_G353V; 100 µM PPQ, single replicates): 105.67 pmol oocyte-1 h-1 and 52.72 pmol oocyte-1 h-1 and 63.14 pmol oocyte-1 h-1
- PfCRTDd2_G353V-mediated PPQ uptake at 300 µM PPQ (PfCRT^Dd2_G353V; 300 µM PPQ, single replicates): 116.72 pmol oocyte-1 h-1 and 65.87 pmol oocyte-1 h-1 and 109.27 pmol oocyte-1 h-1
- PfCRTDd2_G353V-mediated PPQ uptake at 500 µM PPQ (PfCRT^Dd2_G353V; 500 µM PPQ, single replicates): 126.72 pmol oocyte-1 h-1 and 99.20 pmol oocyte-1 h-1 and 126.01 pmol oocyte-1 h-1
- Km (PfCRT^Dd2_G353V; Michaelis-Menten fit, 10-500 μM drug, pH 6, read-out: KM, Michaelis constant): 90 ± 20 µM

SMILES: CCN(CC)CCCC(C)Nc1ccnc2cc(Cl)ccc12 (centres unmarked) [CQ, chloroquine]
- PfCRTDd2_H97Y_F145I-mediated CQ transport (PfCRT^Dd2_H97Y_F145I; 10 µM CQ): 0.56 pmol oocyte-1 h-1 and 0.57 pmol oocyte-1 h-1 and 0.94 pmol oocyte-1 h-1
- PfCRTDd2_H97Y_F145I-mediated CQ transport (PfCRT^Dd2_H97Y_F145I; 50 µM CQ): 1.87 pmol oocyte-1 h-1 and 2.38 pmol oocyte-1 h-1 and 2.20 pmol oocyte-1 h-1 and 4.15 pmol oocyte-1 h-1
- PfCRTDd2_H97Y_F145I-mediated CQ transport (PfCRT^Dd2_H97Y_F145I; 100 µM CQ): 6.01 pmol oocyte-1 h-1 and 3.76 pmol oocyte-1 h-1 and 7.81 pmol oocyte-1 h-1 and 7.54 pmol oocyte-1 h-1 and 7.03 pmol oocyte-1 h-1
- PfCRTDd2_H97Y_F145I-mediated CQ transport (PfCRT^Dd2_H97Y_F145I; 200 µM CQ): 12.93 pmol oocyte-1 h-1 and 22.31 pmol oocyte-1 h-1 and 9.72 pmol oocyte-1 h-1 and 19.44 pmol oocyte-1 h-1 and 15.86 pmol oocyte-1 h-1
- PfCRTDd2_H97Y_F145I-mediated CQ transport (PfCRT^Dd2_H97Y_F145I; 300 µM CQ): 22.26 pmol oocyte-1 h-1 and 28.62 pmol oocyte-1 h-1 and 11.32 pmol oocyte-1 h-1 and 17.61 pmol oocyte-1 h-1
- PfCRTDd2_H97Y_F145I-mediated CQ transport (PfCRT^Dd2_H97Y_F145I; 400 µM CQ): 20.46 pmol oocyte-1 h-1 and 24.94 pmol oocyte-1 h-1 and 27.66 pmol oocyte-1 h-1
- PfCRTDd2_H97Y_F145I-mediated CQ transport (PfCRT^Dd2_H97Y_F145I; 500 µM CQ): 23.29 pmol oocyte-1 h-1 and 35.24 pmol oocyte-1 h-1 and 26.54 pmol oocyte-1 h-1 and 24.00 pmol oocyte-1 h-1
- Hc, Hill coefficient (PfCRT^Dd2_H97Y_F145I): 1.6 ± 0.2
- Vmax, maximal velocity of drug transport (PfCRT^Dd2_H97Y_F145I): 35 ± 1 pmol oocyte^-1 h^-1 and 35 ± 4 pmol oocyte^-1 h^-1
- Km (PfCRT^Dd2_H97Y_F145I): 240 ± 40 µM
- PfCRTDd2_G353V-mediated CQ uptake at 10 µM CQ (PfCRT^Dd2_G353V; 10 µM CQ, single replicates): 0.74 pmol oocyte-1 h-1 and 0.50 pmol oocyte-1 h-1 and 0.07 pmol oocyte-1 h-1
- PfCRTDd2_G353V-mediated CQ uptake at 50 µM CQ (PfCRT^Dd2_G353V; 50 µM CQ, single replicates): 4.74 pmol oocyte-1 h-1 and 5.01 pmol oocyte-1 h-1 and 2.88 pmol oocyte-1 h-1 and 3.92 pmol oocyte-1 h-1 and 4.76 pmol oocyte-1 h-1
- PfCRTDd2_G353V-mediated CQ uptake at 100 µM CQ (PfCRT^Dd2_G353V; 100 µM CQ, single replicates): 7.26 pmol oocyte-1 h-1 and 6.49 pmol oocyte-1 h-1 and 5.26 pmol oocyte-1 h-1
- PfCRTDd2_G353V-mediated CQ uptake at 300 µM CQ (PfCRT^Dd2_G353V; 300 µM CQ, single replicates): 16.30 pmol oocyte-1 h-1 and 8.52 pmol oocyte-1 h-1 and 8.09 pmol oocyte-1 h-1
- PfCRTDd2_G353V-mediated CQ uptake at 500 µM CQ (PfCRT^Dd2_G353V; 500 µM CQ, single replicates): 17.15 pmol oocyte-1 h-1 and 14.95 pmol oocyte-1 h-1 and 14.10 pmol oocyte-1 h-1
- Vmax, maximal velocity of drug transport (PfCRT^Dd2_G353V; Michaelis-Menten fit, 10-500 μM drug, pH 6): 23 ± 3 pmol oocyte^-1 h^-1
